Data: patent US5556864A, “α-ω-diarylalkane compounds serotonin-2 receptor agonists” (Sankyo Company, Limited, priority 1992, dated 1996)
Structures can show the parent of a compound that is named as a salt.

Columns and labels:
[1] = target: T1, 5-HT2 receptors (Rattus norvegicus, UniProt P14842); test: Vasoconstriction experiment: relaxation of rat caudal artery strips precontracted with 5-HT; format: cell-based, rat (male Sprague-Dawley); conditions: precontracted with 5-HT 3×10^-6 M; concentration causing one half of maximum relaxation (papaverine 10^-4 M = maximum); 37 °C
T1 construct: The caudal arteries were dissected free from connective tissue and cut into spiral strips; from tissue; host or cells: rat caudal artery, spiral strips
Protocol: (§1) Vasoconstriction Experiment
(§2) Contractions of the rat caudal ateries were investigated by the method of Van Neuten et al. (J. Pharmacol. Exp. Ther., 218, 217-230, 1981).
(§3) Male Sprague-Dawley rats, each weighing approximately 500 g, were sacrificed by rapid exsanguination. The caudal arteries were dissected free from connective tissue and cut into spiral strips (2×20 mm). The resulting preparations were mounted in organ baths, each containing 10 ml of Tyrode solution maintained at 37° C., and then gassed with a mixture of 95% by volume O2 and 5% CO2. The preparations were allowed to equilibrate for 1 hour before being used in the experiment.
(§4) An initial optimum resting tension of 0.5 g was applied to the preparations, and isometric contractions were recorded with force-displacement transducers. The relaxant effects of the test compounds were determined on preparations which had been precontracted with 5-HT (5-hydroxytryptamine) (3×10^-6 M), which is an agonist of the 5-HT2 receptors, or phenylephrine (10^-6 M), which is an agonist of the adrenaline-α1 receptors. After the constractile response to the 5-HT or the phenylephrine had reached a steady state, the test compound was added cumulatively to the bathing medium. At the end of the experiments, papaverine (10^-4 M) was added to produce the maximum relaxation.
(§5) The relaxation induced by each test compound was calculated as a percentage of the maximum relaxation induced by 10^-4 M of papaverine. The concentrations causing one half of the maximum relaxation (IC50) were calculated by the method of least squares.

[2] = test system: adrenaline-α1 receptors; test: Vasoconstriction experiment: relaxation of rat caudal artery strips precontracted with phenylephrine; format: cell-based, rat (male Sprague-Dawley); conditions: precontracted with phenylephrine 10^-6 M; concentration causing one half of maximum relaxation (papaverine 10^-4 M = maximum); 37 °C; read-out: IC50 adrenalin-α1
Protocol: as §1, §2, §3, §4, §5

T1 sequence (P14842 whole entry): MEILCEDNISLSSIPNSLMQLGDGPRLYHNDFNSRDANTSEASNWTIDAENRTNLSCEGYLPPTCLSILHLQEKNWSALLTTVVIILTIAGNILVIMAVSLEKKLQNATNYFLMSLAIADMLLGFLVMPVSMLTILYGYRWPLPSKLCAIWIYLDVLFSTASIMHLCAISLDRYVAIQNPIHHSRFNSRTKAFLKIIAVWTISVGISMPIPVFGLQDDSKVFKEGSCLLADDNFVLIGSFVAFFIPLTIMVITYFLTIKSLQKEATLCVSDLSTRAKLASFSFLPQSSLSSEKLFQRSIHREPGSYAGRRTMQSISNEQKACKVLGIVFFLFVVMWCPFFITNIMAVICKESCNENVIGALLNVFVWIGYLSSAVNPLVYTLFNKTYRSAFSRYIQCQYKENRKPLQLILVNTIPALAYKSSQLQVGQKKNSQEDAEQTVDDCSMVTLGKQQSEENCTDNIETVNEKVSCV

SMILES | IC50 [1] [nM] | IC50 [2] [nM]
CN1CCC[C@H]1CCOc1ccccc1CCc1cccc(OC(F)F)c1 [Example 116, (S)-2-(2-{2-[2-(3-Difluoromethoxyphenyl)ethyl]phenoxy}ethyl)-1-methylpyrrolidine hydrochloride] | 2.2 | 
CN1CCCC1CCOc1ccccc1CCc1ccccc1F (stereo not shown) [Example 97, 2-(2-{2-[2-(2-Fluorophenyl)ethyl]phenoxy}ethyl)-1-methylpyrrolidine hydrochloride] | 6.5 | 860
CCOc1cccc(CCc2ccccc2OCCC2CCCN2C)c1 (stereo not shown) [Example 99, 2-(2-{2-[2-(3-Ethoxyphenyl)ethyl]phenoxy}ethyl)-1-methylpyrrolidine hydrochloride] | 6.1 | 1300
COc1cccc(CCc2ccccc2OC[C@H]2CCCN(C)C2)c1 [Example 121, (S)-3-{2-[2-(3-Methoxyphenyl)ethyl]phenoxymethyl}-1-methylpiperidine hydrochloride] | 2.2 | 
CN1CCCC1CCOc1ccccc1CCc1cccc(Br)c1 (stereo not shown) [Example 98, 2-(2-{2-[2-(3-Bromophenyl)ethyl]phenoxy}ethyl)-1-methylpyrrolidine hydrochloride] | 5.4 | 2200
COc1cc(CCc2ccccc2OCC[C@@H]2C[C@@H](O)CN2C)cc(OC)c1 [Example 118, (2R,4R)-4-hydroxy-2-(2-{2-[2-(3,5-dimethoxyphenyl)ethyl]phenoxy}ethyl)-1-methylpyrrolidine] | 2.6 | 5400
COc1cccc(CCc2ccccc2OC[C@H]2CCCNC2)c1 [Example 120, (S)-3-{2-[2-(3-Methoxyphenyl)ethyl]phenoxymethyl}piperidine hydrochloride] | 4.2 | 
FC(F)Oc1cccc(CCc2ccccc2OCC2CCCNC2)c1 (stereo not shown) [Example 123, 3-{2-[2-(3-Difluoromethoxyphenyl)ethyl]phenoxymethyl}piperidine hydrochloride] | 5.7 | 
CN1CCCC1CCOc1ccccc1CCc1ccccc1C#N (stereo not shown) [Example 108, 2-(2-{2-[2-(2-Cyanophenyl)ethyl]phenoxy}ethyl)-1-methylpyrrolidine hydrochloride] | 2.2 | 1700
COc1cccc(CCc2ccccc2OCC2CCCN(C)C2)c1 (stereo not shown) [Example 50, 3-{2-[2-(3-Methoxyphenyl)ethyl]phenoxymethyl}-1-methylpiperidine hydrochloride] | 4.3 | 3700
COc1cccc(CCc2ccccc2OCCC2CCCCN2C)c1 (stereo not shown) [Example 48, 2-(2-{2-[2-(3-Methoxyphenyl)ethyl]phenoxy}ethyl)-1-methylpiperidine hydrochloride] | 3.7 | 2500
COc1cccc(CCc2ccccc2OCC[C@@H]2CCCN2C)c1 [Example 113, (S)-2-(2-{2-[2-(3-Methoxyphenyl)ethyl]phenoxy}ethyl)-1-methylpyrrolidine hydrochloride] | 2.2 | 1200
CCOc1ccc(CCc2ccccc2OCCC2CCCN2C)cc1 (stereo not shown) [Example 101, 2-(2-{2-[2-(4-Ethoxyphenyl)ethyl]phenoxy}ethyl)-1-methylpyrrolidine hydrochloride] | 3.7 | 3700
COc1cccc(CCc2ccccc2OC[C@@H]2CCCN2C)c1 [Example 58, (S)-2-{2-[2-(3-Methoxyphenyl)ethyl]phenoxymethyl}-1-methylpyrrolidine hydrochloride] | 5 | 4900
CN1CCCC(COc2ccccc2CCc2cccc(OC(F)F)c2)C1 (stereo not shown) [Example 124, 3-{2-[2-(3-Difluoromethoxyphenyl)ethyl]phenoxymethyl}-1-methylpiperidine hydrochloride] | 4.6 | 
